Assay results reported in the Kinase Knowledgebase extract (Sharma et al. 2016).

biological target: MAPK14 (human) (UniProt Q16539); assay: Inhibition of MAPK14 Kinase Activity
Sequence (Q16539 whole entry, looked up): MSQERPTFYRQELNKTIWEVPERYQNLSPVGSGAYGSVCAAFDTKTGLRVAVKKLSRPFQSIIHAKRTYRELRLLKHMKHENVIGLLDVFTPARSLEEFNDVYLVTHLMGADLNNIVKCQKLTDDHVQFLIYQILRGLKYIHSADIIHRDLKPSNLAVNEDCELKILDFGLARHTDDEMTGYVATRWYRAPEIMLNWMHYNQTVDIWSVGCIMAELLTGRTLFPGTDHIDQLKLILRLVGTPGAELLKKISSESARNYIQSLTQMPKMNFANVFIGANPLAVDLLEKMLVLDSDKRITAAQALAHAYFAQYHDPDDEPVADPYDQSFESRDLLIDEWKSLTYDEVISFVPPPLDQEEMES

| Structure (SMILES) | IC50 [nM] |
| --- | --- |
| CNCCCOc1ccccc1[C@H]1CCCN1c1nccn(-c2cc(C(=O)NC3CC3)ccc2C)c1=O | 1.26 |
| Cc1ccc(C(=O)NC2CC2)cc1-n1ccnc(N[C@H](CC(=O)N2CCN(C)CC2)c2ccccc2)c1=O | 25.1 |
| CCC(CC)(Nc1nccn(-c2cc(C(=O)NC3CC3)ccc2C)c1=O)c1ccccc1OCCNC | 0.398 |
| Cc1ccc(C(=O)NC2CC2)cc1-n1ccnc(NC(CC(=O)NC2CC2)c2ccccc2)c1=O (centres undefined) | 31.6 |
| Cc1ccc(C(=O)NC2CC2)cc1-n1ccnc(NC(c2ccccc2)C2CCN(C)CC2)c1=O (centres undefined) | 251 |
| CNCCCOc1ccccc1[C@@H]1CCCN1c1nccn(-c2cc(C(=O)NC3CC3)ccc2C)c1=O | 25.1 |
| Cc1ccc(C(=O)NC2CC2)cc1-n1ccnc(NCc2ccc(CNC(=O)OC(C)(C)C)cc2)c1=O | 501 |
| Cc1ccc(C(=O)NC2CC2)cc1-n1ccnc(N[C@H](CC(=O)OC(C)(C)C)c2ccccc2)c1=O | 20 |

More lines, in order of falling IC50, values ahead:

| IC50 [nM] | Structure (SMILES) |
| --- | --- |
| 1000 | CCC(C)NC(=O)c1ccc(C)c(-n2ccnc(NCc3ccc(N4CCN(C)CC4)cc3)c2=O)c1 (centres undefined) |
| 126 | Cc1ccc(C(=O)NC2CC2)cc1-n1ccnc(NCC2Cc3ccccc3CN2)c1=O (centres undefined) |
| 31.6 | Cc1ccc(C(=O)NC2CC2)cc1-n1ccnc(NCc2cccc(CNC(=O)OC(C)(C)C)c2)c1=O |
| 1 | Cc1ccc(C(=O)NC2CC2)cc1-n1ccnc(N[C@@H](c2ccccc2)[C@@H](C)CN2CCCN(C)CC2)c1=O |
| 0.631 | CCN(CC)CCOc1ccccc1C(C)(C)Nc1nccn(-c2cc(C(=O)NC3CC3)ccc2C)c1=O |
| 0.631 | Cc1ccc(C(=O)NC2CC2)cc1-n1ccnc(N[C@@H](c2ccccc2)[C@@H](C)CN2CCC(C(N)=O)CC2)c1=O |
